Experimental findings from patent US11117900B2 (Vertex Pharmaceuticals Incorporated, priority 2012, dated 2021) are described below.

The assay has as its system HCT116 colorectal cancer cells. Briefly: Cisplatin sensitization assay (96 h MTS cell viability).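 Note: compound concentration needed to lower the IC50 of Cisplatin alone by a set fold.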 The format is cell-based. Conditions: Cisplatin sensitization value. The gist of the method: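 The MTS viability read, after 1 h with reagent, followed 96 h of co-treatment at 37° C. in 5% CO2. Both compound and cisplatin were titrated 2-fold from a 10 μM top final concentration in a complete concentration matrix on HCT116 cells. Scores +++/++/+ reflect cisplatin sensitization value ranges.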
For the molecule `Nc1nn2cc(F)cnc2c1C(=O)Nc1cnccc1-n1ccnc1` [I-N-7, N-(4-(1H-imidazol-1-yl)pyridin-3-yl)-2-amino-6-fluoropyrazolo[1,5-a]pyrimidine-3-carboxamide], the “Cisplatin Sensitization Assay” value was “++ (Compounds with a Cisplatin sensitization value >0.02 μM but <0.2 μM are marked with “++.”)”.

As to `CN1CC(N2CCN(C(=O)C3CCN(c4c(F)cncc4NC(=O)c4c(N)nn5cc(F)cnc45)CC3)CC2)C1` [I-G-96, 2-amino-6-fluoro-N-(5-fluoro-4-(4-(4-(1-methylazetidin-3-yl)piperazine-1-carbonyl)piperidin-1-yl)pyridin-3-yl)pyrazolo[1,5-a]pyrimidine-3-carboxamide], the “Cisplatin Sensitization Assay” value is recorded as “+++ (Compounds with a Cisplatin sensitization value of <0.02 μM are marked with “+++.”)”.

`CC(C)(C#N)c1cnc2c(C(=O)Nc3cnccc3N3CCN(C4COC4)CC3)c(N)nn2c1` [I-N-142, 2-amino-6-(2-cyanopropan-2-yl)-N-(4-(4-(oxetan-3-yl)piperazin-1-yl)pyridin-3-yl)pyrazolo[1,5-a]pyrimidine-3-carboxamide]: the “Cisplatin Sensitization Assay” value was “++ (Compounds with a Cisplatin sensitization value >0.02 μM but <0.2 μM are marked with “++.”)”.

Turning to `Nc1nn2cc(F)cnc2c1C(=O)Nc1cncc(F)c1N1CCC(N2CCCC2=O)CC1` [I-N-147, 2-amino-6-fluoro-N-(5-fluoro-4-(4-(2-oxopyrrolidin-1-yl)piperidin-1-yl)pyridin-3-yl)pyrazolo[1,5-a]pyrimidine-3-carboxamide], the “Cisplatin Sensitization Assay” value was “+++ (Compounds with a Cisplatin sensitization value of <0.02 μM are marked with “+++.”)”.

With `CN1CCN(c2c(F)cncc2NC(=O)c2c(N)nn3cc(F)cnc23)CC1` [I-N-15, 2-amino-6-fluoro-N-(5-fluoro-4-(4-methylpiperazin-1-yl)pyridin-3-yl)pyrazolo[1,5-a]pyrimidine-3-carboxamide], the “Cisplatin Sensitization Assay” value is reported as “+++ (Compounds with a Cisplatin sensitization value of <0.02 μM are marked with “+++.”)”.

On to `Nc1nn2cc(Cl)cnc2c1C(=O)Nc1cnccc1O[C@H]1CCOC1` [I-O-58, (S)-2-amino-6-chloro-N-(4-((tetrahydrofuran-3-yl)oxy)pyridin-3-yl)pyrazolo[1,5-a]pyrimidine-3-carboxamide], for which the “Cisplatin Sensitization Assay” value is reported as “+++ (Compounds with a Cisplatin sensitization value of <0.02 μM are marked with “+++.”)”.

On to `CN(C)CCCN(C)C(=O)C1CCN(c2c(F)cncc2NC(=O)c2c(N)nn3cc(F)cnc23)CC1` [I-G-16, 2-amino-N-(4-(4-((3-(dimethylamino)propyl)(methyl)carbamoyl)piperidin-1-yl)-5-fluoropyridin-3-yl)-6-fluoropyrazolo[1,5-a]pyrimidine-3-carboxamide], for which the “Cisplatin Sensitization Assay” value is “+++ (Compounds with a Cisplatin sensitization value of <0.02 μM are marked with “+++.”)”.

Regarding `CN1CCN(c2cc(N)ncc2NC(=O)c2c(N)nn3cc(Cl)cnc23)CC1` [I-N-50, 2-amino-N-(6-amino-4-(4-methylpiperazin-1-yl)pyridin-3-yl)-6-chloropyrazolo[1,5-a]pyrimidine-3-carboxamide], the “Cisplatin Sensitization Assay” value is reported as “+ (Compounds with a Cisplatin sensitization value >0.2 μM but <5 μM are marked with “+.”)”.

As for `CN1CCN(C(=O)C2CCN(c3c(F)cncc3NC(=O)c3c(N)nn4cc(Cl)cnc34)CC2)CC1` [I-G-5, 2-amino-6-chloro-N-(5-fluoro-4-(4-(4-methylpiperazine-1-carbonyl)piperidin-1-yl)pyridin-3-yl)pyrazolo[1,5-a]pyrimidine-3-carboxamide], the “Cisplatin Sensitization Assay” value was “+++ (Compounds with a Cisplatin sensitization value of <0.02 μM are marked with “+++.”)”.

For `Nc1nn2cc(F)cnc2c1C(=O)Nc1cncc(F)c1N1CCN2C(=O)CCC[C@@H]2C1` [I-N-280, (R)-2-amino-6-fluoro-N-(5-fluoro-4-(6-oxohexahydro-1H-pyrido[1,2-a]pyrazin-2(6H)-yl)pyridin-3-yl)pyrazolo[1,5-a]pyrimidine-3-carboxamide], the “Cisplatin Sensitization Assay” value is listed as “+++ (Compounds with a Cisplatin sensitization value of <0.02 μM are marked with “+++.”)”.

As for `Nc1nn2cc(F)cnc2c1C(=O)Nc1cncc(Cl)c1N1CCC(C(=O)N2CCN3CCC2C3)CC1` (stereo not shown) [I-G-69, N-(4-(4-(1,4-diazabicyclo[3.2.1]octane-4-carbonyl)piperidin-1-yl)-5-chloropyridin-3-yl)-2-amino-6-fluoropyrazolo[1,5-a]pyrimidine-3-carboxamide], the “Cisplatin Sensitization Assay” value was “+++ (Compounds with a Cisplatin sensitization value of <0.02 μM are marked with “+++.”)”.

As to `CC(C)N1CCCC1C(=O)N1CCN(c2c(F)cncc2NC(=O)c2c(N)nn3cc(F)cnc23)CC1` (stereo not shown) [I-N-205, 2-amino-6-fluoro-N-(5-fluoro-4-(4-(1-isopropylpyrrolidine-2-carbonyl)piperazin-1-yl)pyridin-3-yl)pyrazolo[1,5-a]pyrimidine-3-carboxamide], the “Cisplatin Sensitization Assay” value is listed as “++ (Compounds with a Cisplatin sensitization value >0.02 μM but <0.2 μM are marked with “++.”)”.

In the case of `CCC(C#N)c1cnc2c(C(=O)Nc3cnccc3OC)c(N)nn2c1` (stereo not shown) [I-O-20, 2-amino-6-(1-cyanopropyl)-N-(4-methoxypyridin-3-yl)pyrazolo[1,5-a]pyrimidine-3-carboxamide], the “Cisplatin Sensitization Assay” value is “++ (Compounds with a Cisplatin sensitization value >0.02 μM but <0.2 μM are marked with “++.”)”.

On to `CC(C)(C)N1CCN(c2ccncc2NC(=O)c2c(N)nn3cc(Cl)cnc23)CC1` [I-N-34, 2-amino-N-(4-(4-(tert-butyl)piperazin-1-yl)pyridin-3-yl)-6-chloropyrazolo[1,5-a]pyrimidine-3-carboxamide], for which the “Cisplatin Sensitization Assay” value is “++ (Compounds with a Cisplatin sensitization value >0.02 μM but <0.2 μM are marked with “++.”)”.

Turning to `Nc1nn2cc(Cl)cnc2c1C(=O)Nc1cnccc1N1CCC(N2CCn3ccnc3C2)CC1` [I-N-102, 2-amino-6-chloro-N-(4-(4-(5,6-dihydroimidazo[1,2-a]pyrazin-7(8H)-yl)piperidin-1-yl)pyridin-3-yl)pyrazolo[1,5-a]pyrimidine-3-carboxamide], the “Cisplatin Sensitization Assay” value is “++ (Compounds with a Cisplatin sensitization value >0.02 μM but <0.2 μM are marked with “++.”)”.

Regarding `CN1CCN(c2c(Cl)cncc2NC(=O)c2c(N)nn3cc(F)cnc23)CC1` [I-N-85, 2-amino-N-(5-chloro-4-(4-methylpiperazin-1-yl)pyridin-3-yl)-6-fluoropyrazolo[1,5-a]pyrimidine-3-carboxamide], the “Cisplatin Sensitization Assay” value is listed as “++ (Compounds with a Cisplatin sensitization value >0.02 μM but <0.2 μM are marked with “++.”)”.

In the case of `CN1CCN(C(=O)[C@H]2CC[C@@H](Oc3ccncc3NC(=O)c3c(N)nn4cc(F)cnc34)CC2)CC1` [I-O-19, 2-amino-6-fluoro-N-(4-(((1s,4s)-4-(4-methylpiperazine-1-carbonyl)cyclohexyl)oxy)pyridin-3-yl)pyrazolo[1,5-a]pyrimidine-3-carboxamide], the “Cisplatin Sensitization Assay” value is recorded as “+++ (Compounds with a Cisplatin sensitization value of <0.02 μM are marked with “+++.”)”.

Take `CC1(S(C)(=O)=O)CCN(c2ccncc2NC(=O)c2c(N)nn3cc(F)cnc23)CC1` [I-N-243, 2-amino-6-fluoro-N-(4-(4-methyl-4-(methylsulfonyl)piperidin-1-yl)pyridin-3-yl)pyrazolo[1,5-a]pyrimidine-3-carboxamide]: the “Cisplatin Sensitization Assay” value is on record as “+++ (Compounds with a Cisplatin sensitization value of <0.02 μM are marked with “+++.”)”.

For the molecule `Nc1nn2cc(F)cnc2c1C(=O)Nc1cnccc1N1CCOCC1` [I-N-141, 2-amino-6-fluoro-N-(4-morpholinopyridin-3-yl)pyrazolo[1,5-a]pyrimidine-3-carboxamide], the “Cisplatin Sensitization Assay” value was “+++ (Compounds with a Cisplatin sensitization value of <0.02 μM are marked with “+++.”)”.

In the case of `CN1CCC(C(=O)N2CCN(c3c(F)cncc3NC(=O)c3c(N)nn4cc(F)cnc34)CC2)CC1` [I-N-128, 2-amino-6-fluoro-N-(5-fluoro-4-(4-(1-methylpiperidine-4-carbonyl)piperazin-1-yl)pyridin-3-yl)pyrazolo[1,5-a]pyrimidine-3-carboxamide], the “Cisplatin Sensitization Assay” value is “+++ (Compounds with a Cisplatin sensitization value of <0.02 μM are marked with “+++.”)”.

Turning to `Nc1nn2cc(F)cnc2c1C(=O)Nc1cnccc1C1CCOC1` (stereo not shown) [I-C-75, 2-amino-6-fluoro-N-(4-(tetrahydrofuran-3-yl)pyridin-3-yl)pyrazolo[1,5-a]pyrimidine-3-carboxamide], the “Cisplatin Sensitization Assay” value is recorded as “++ (Compounds with a Cisplatin sensitization value >0.02 μM but <0.2 μM are marked with “++.”)”.

In the case of `Nc1nn2cc(F)cnc2c1C(=O)Nc1cnccc1-n1cccn1` [I-N-26, N-(4-(1H-pyrazol-1-yl)pyridin-3-yl)-2-amino-6-fluoropyrazolo[1,5-a]pyrimidine-3-carboxamide], the “Cisplatin Sensitization Assay” value is reported as “+ (Compounds with a Cisplatin sensitization value >0.2 μM but <5 μM are marked with “+.”)”.

For the molecule `CC(=O)N1CCC2(CCN(c3ccncc3NC(=O)c3c(N)nn4cc(F)cnc34)CC2)C1` [I-N-257, N-(4-(2-acetyl-2,8-diazaspiro[4.5]decan-8-yl)pyridin-3-yl)-2-amino-6-fluoropyrazolo[1,5-a]pyrimidine-3-carboxamide], the “Cisplatin Sensitization Assay” value was “+++ (Compounds with a Cisplatin sensitization value of <0.02 μM are marked with “+++.”)”.

Consider `Nc1nn2cc(F)cnc2c1C(=O)Nc1cncc(F)c1N1CCCCC1` [I-N-270, 2-amino-6-fluoro-N-(5-fluoro-4-(piperidin-1-yl)pyridin-3-yl)pyrazolo[1,5-a]pyrimidine-3-carboxamide], for which the “Cisplatin Sensitization Assay” value is reported as “+++ (Compounds with a Cisplatin sensitization value of <0.02 μM are marked with “+++.”)”.

Regarding `Nc1nn2cc(F)cnc2c1C(=O)Nc1cnccc1N1CCN([C@H]2CCOC2)CC1` [I-N-12, (S)-2-amino-6-fluoro-N-(4-(4-(tetrahydrofuran-3-yl)piperazin-1-yl)pyridin-3-yl)pyrazolo[1,5-a]pyrimidine-3-carboxamide], the “Cisplatin Sensitization Assay” value is recorded as “+++ (Compounds with a Cisplatin sensitization value of <0.02 μM are marked with “+++.”)”.
